In PubChem BioAssay AID1259407 (Chemical Carcinogenesis Research Information System (CCRIS), 2018):
Active and inactive are the calls of the source. No rule for the calls is given here.

Tested on: CCRIS mutagenicity, Ames/micronucleus/aberration tests
Experiment: CCRIS mutagenicity studies

Measured: mutagenic call

O=[N+]([O-])c1ccc2c3c1ccc1cccc(c13)[C@@H]1O[C@H]21
active: Test System: AMES SALMONELLA TYPHIMURIUM, Strain/Indicator: TA98(1,8-DNP6), Metabolic Activation: RAT, LIVER, S-9, PHENOBARBITAL AND 5,6-BENZOFLAVONE, Method: PREINCUBATION active; positive | Test System: AMES SALMONELLA TYPHIMURIUM, Strain/Indicator: TA98(NR), Metabolic Activation: NONE, Method: PREINCUBATION active; positive | Test System: AMES SALMONELLA TYPHIMURIUM, Strain/Indicator: TA98, Metabolic Activation: NONE, Method: PREINCUBATION active; positive | Test System: AMES SALMONELLA TYPHIMURIUM, Strain/Indicator: TA98, Metabolic Activation: RAT, LIVER, S-9, PHENOBARBITAL AND 5,6-BENZOFLAVONE, Method: PREINCUBATION active; positive | Test System: AMES SALMONELLA TYPHIMURIUM, Strain/Indicator: TA100, Metabolic Activation: NONE, Method: PREINCUBATION active; positive | Test System: AMES SALMONELLA TYPHIMURIUM, Strain/Indicator: TA100, Metabolic Activation: RAT, LIVER, S-9, PHENOBARBITAL AND 5,6-BENZOFLAVONE, Method: PREINCUBATION active; positive | Test System: CHINESE HAMSTER OVARY, Strain/Indicator: CHO (HGPRT)/6-THIOGUANINE, Metabolic Activation: NONE, Method: STANDARD PLATE active; positive | Test System: CHINESE HAMSTER OVARY, Strain/Indicator: CHO (HGPRT)/6-THIOGUANINE, Metabolic Activation: RAT, LIVER, S-9, AROCLOR 1254, Method: STANDARD PLATE active; positive | Test System: UDS RODENT HEPATOCYTES, Strain/Indicator: THY INCORP, Metabolic Activation: NONE, Method: AUTORADIOGRAPHY active; positive
